The text below walks through data of the NIST ThermoML archive (doi:10.1021/je100839v).

± gives the expanded uncertainty stated by the source.

For the data set the following is noted: for Glass transition temperature: DTA; for vapor or sublimation pressure: Liquid, Closed cell (Static) method.

Consider `CCOS(=O)(=O)[O-].CCn1cc[n+](C)c1` [1-ethyl-3-methylimidazolium ethyl sulfate], for which the Glass transition temperature was -86.0 ± 3 °C.
On the same count and under the same terms, under `CCCCn1cc[n+](C)c1.[I-]` [1-butyl-3-methylimidazolium iodide] stands -62.0 ± 3 °C; under `CCCCn1cc[n+](C)c1.N#C[S-]` [1-butyl-3-methylimidazolium thiocyanate], -89.0 ± 3 °C.
In the case of `CCCCn1cc[n+](C)c1.F[B-](F)(F)F` [1-butyl-3-methylimidazolium tetrafluoroborate], the Glass transition temperature was -85.0 ± 3 °C.
For the molecule `O` [water], the “vapor or sublimation pressure” value is, setting by setting: (313.85 K) 8.1 ± 3.1 kPa; (318.65 K) 10.4 ± 3.2 kPa; (323.45 K) 13.2 ± 3.3 kPa; (328.35 K) 16.5 ± 3.3 kPa; (333.35 K) 20.1 ± 3.5 kPa; (338.15 K) 24.9 ± 3.7 kPa. Besides, where the note is “343.05 K”, the “vapor or sublimation pressure” value is reported as 30.6 ± 3.8 kPa.

The vapor or sublimation pressure is the equilibrium pressure above the liquid or solid.
